Reference: patent publication US10287279B2, “Inhibitors of human 12/15-lipoxygenase” (THE GENERAL HOSPITAL CORPORATION, priority 2013, dated 2019)
Entries after “also recorded” stand apart in the source; their conditions may differ. Where two headings read alike, the source gives them in different places.

Key:
[1] = test system: mouse hippocampal HT22 cells; assay: HT22 cell culture assay, glutamate-induced cell death (LDH release); assay type: cell-based; settings: for protection against oxidative glutamate toxicity in HT22 cells: 5 mM glutamate, increasing amounts or concentration not stated
Excerpt: Glutamate-induced oxidative stress^67-69 leads to time-dependent cell death mediated by 12/15-LOX in both immature primary neurons and mouse hippocampal HT22 cells.^38,46,70 Primary neurons require a lengthy isolation procedure and also show relatively modest increases in cell death in this assay, indicating they are not suited for a high-throughput testing approach. In contrast, HT22 cells grow quickly and consistently feature low cell death under control conditions, but a majority of cells die after glutamate treatment (50-100%). This assay can be adapted to 96-well plates, allowing for moderate to high throughput against the screened compounds. The characteristic Z′ score used to evaluate the technical quality and suitability as screening tool averaged 0.77 over ten experiments (SD=0.13; range, 0.49-0.94), where values above 0.5 indicate an excellent assay.^71
Treatment consisted of exchanging the medium to 100 μl fresh culturing medium and adding 5 mM glutamate (stock solution 0.5 M in PBS) in the presence or absence of DMSO (maximum 0.1% final concentration) as control or the indicated concentrations of 1. […] Three independent experiments were evaluated. […] The eicosanoids containing fractions were transferred to scintillation vials followed by addition of perdeuterated 13-HODE (13-d31-HODE), as an internal control for extraction and 1.5% glacial acetic acid for protein precipitation. […] The dry samples were then re-constituted in methanol and an internal control 12-deuterated (d8)-HETE (12-d8-HETE), was added to each sample for detector response variation and it was assumed that the change in detector response for 12-HETE and 12-d8-HETE would be similar. […] The Collision Induced Dissociation (CID) was used for MS-MS with collision energy of 35 eV.

[2] = Aqueous kinetic solubility; settings: PBS buffer (pH 7.4)
[3] = test system: warfarin-pretreated mice subjected to transient focal ischemia; assay: Warfarin-associated hemorrhage following experimental stroke (transient focal ischemia); assay type: in vivo, mouse
Procedure: A) In warfarin-pretreated mice subjected to transient focal ischemia with 3 h occlusion, 50 mg/kg ML351 was administered by i.p. injection 3 h after onset of ischemia (FIG. 9A). This mimics the situation of a patient on warfarin who experiences a severe stroke with hemorrhagic transformation.
B) To investigate if administering tPA to patients with an ischemic stroke who are on warfarin can be made safe, warfarin-pretreated mice were subjected to 2 h of transient focal ischemia, then treated with tPA 4 h after onset of ischemia, and administered 50 mg/kg ML351 by i.p. injection concurrently with tPA.

Caco-2 permeability = settings: human
[4] = molecular target: human platelet 12-lipoxygenase (12-LOX) (Homo sapiens (Human), UniProt P18054); assay: Lipoxygenase UV-Vis assay, 12-LOX; assay type: biochemical; settings: selectivity profiling
Procedure: (§1) Human 5-lipoxygenase (5-LOX) was expressed as a non-tagged protein and used as a crude ammonium sulfate protein fraction, as published previously.^77
(§2) The inhibitor compounds were screened initially using one concentration point on a Perkin-Elmer Lambda 40 UV-Vis spectrometer. […] The reactions were initiated by adding either of ˜40 nM 12-LOX, 40 nM 12/15-LOX, 0.5 μM 15-LOX-2 or ˜200 nM 5-LOX (ammonium sulfate suspension) to a cuvette with a 2 mL reaction buffer constantly stirred using a magnetic stir bar at room temperature (22° C.). […] Inhibitors were stored at −20° C. in DMSO.

[5] = In vivo PK (mouse) at 30 mpk IP
[6] = test system: mouse distal MCAO model of permanent focal ischemia; set-up: species or system C57B16J mice; settings: in vivo
Procedure: To study 1 in a model of distal middle cerebral artery occlusion (distal MCAO), ^74 C57B16J mice were treated with ferric chloride (FeCl3) to cause occlusion of the distal middle cerebral artery. […] The body temperature was monitored by a rectal probe and maintained at 37±0.3° C. by a homoeothermic blanket control unit. Briefly, mice were placed in a stereotaxic frame, the scalp was opened and right temporal muscle was dissected. The area between zygomatic arch and squamous bone was thinned by a high-speed drill and cooled with saline. The trace of MCA was visualized and thin bony film was lifted up by forceps. After that a laser-Doppler flowmetry probe was placed 2 mm posterior, 6 mm lateral to the bregma to monitor the regional cerebral blood flow (rCBF). After obtaining a stable epoch of the pre-ischemic rCBF, a piece of 10% FeCl3 saturated filter paper was placed over the intact dura mater along the trace of MCA and the rCBF was continuously monitored during the next 3 hours. After 2 hours of ischemia, either 50 mg/kg 1, or DMSO vehicle was injected intraperitoneally. Following sacrifice at 24 hours, brains were sectioned into 1 mm slices, and infarct sizes were determined by staining with 2,3,5-triphenyltetrazolium chloride (TTC), using the indirect method (infarct volume=contralateral volume minus uninfarcted ipsilateral volume). […]

[7] = Microsomal stability, rat liver microsomes; settings: absence of NADPH; 1 hr period; species not distinguished
[8] = Stability in aqueous solutions; settings: pH 2, pH 7.4, pH 9
[9] = test system: filament model of transient focal ischemia; assay: Filament model of transient focal ischemia; assay type: in vivo, mouse; settings: 90 minutes ischemia, sacrifice at 24 hours
[10] = molecular target: human reticulocyte 15-lipoxygenase-1 (12/15-LOX) (Homo sapiens (Human), UniProt P16050); assay: Lipoxygenase UV-Vis cuvette-based assay, 12/15-LOX; assay type: biochemical; settings: for 12/15-LOX inhibition in words: SAR discussion, human 12/15-LOX
Procedure: as §1, §2

[11] = molecular target: Human 5-lipoxygenase (5-LOX) (Homo sapiens (Human), UniProt P09917); assay: Lipoxygenase UV-Vis assay, 5-LOX; assay type: biochemical; settings: selectivity profiling
Procedure: as §1, §2

[12] = molecular target: human epithelial 15-lipoxygenase-2 (15-LOX-2) (Homo sapiens (Human), UniProt O15296); assay: Lipoxygenase UV-Vis assay, 15-LOX-2; assay type: biochemical; settings: selectivity profiling
Procedure: as §1, §2

[13] = male, CD1, mouse, brain, ip, 30 mg/kg
[14] = male, CD1, mouse, plasma, ip, 30 mg/kg
[15] = UV-Vis cuvette-based assay in triplicate, 10 μM AA, read-out: IC50 (μM) [±SD (μM)]

Chain of human reticulocyte 15-lipoxygenase-1 (12/15-LOX) (P16050 whole entry): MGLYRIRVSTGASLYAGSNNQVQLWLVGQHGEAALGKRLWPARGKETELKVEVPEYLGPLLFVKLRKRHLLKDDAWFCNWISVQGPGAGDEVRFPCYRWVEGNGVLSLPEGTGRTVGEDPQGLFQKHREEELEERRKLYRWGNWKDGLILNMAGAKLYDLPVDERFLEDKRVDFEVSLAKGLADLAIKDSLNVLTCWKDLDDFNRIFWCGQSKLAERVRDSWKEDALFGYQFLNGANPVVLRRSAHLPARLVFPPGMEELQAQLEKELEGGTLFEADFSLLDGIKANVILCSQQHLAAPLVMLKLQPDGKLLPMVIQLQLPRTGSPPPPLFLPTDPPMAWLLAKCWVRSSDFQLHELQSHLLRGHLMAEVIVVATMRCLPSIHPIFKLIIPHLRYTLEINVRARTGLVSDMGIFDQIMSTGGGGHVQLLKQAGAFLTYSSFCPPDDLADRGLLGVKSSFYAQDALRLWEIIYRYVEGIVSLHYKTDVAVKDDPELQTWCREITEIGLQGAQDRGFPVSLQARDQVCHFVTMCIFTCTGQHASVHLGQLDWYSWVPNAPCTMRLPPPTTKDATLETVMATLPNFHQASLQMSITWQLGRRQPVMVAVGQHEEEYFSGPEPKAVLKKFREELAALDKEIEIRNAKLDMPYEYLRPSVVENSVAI
Chain of human platelet 12-lipoxygenase (12-LOX) (P18054 whole entry): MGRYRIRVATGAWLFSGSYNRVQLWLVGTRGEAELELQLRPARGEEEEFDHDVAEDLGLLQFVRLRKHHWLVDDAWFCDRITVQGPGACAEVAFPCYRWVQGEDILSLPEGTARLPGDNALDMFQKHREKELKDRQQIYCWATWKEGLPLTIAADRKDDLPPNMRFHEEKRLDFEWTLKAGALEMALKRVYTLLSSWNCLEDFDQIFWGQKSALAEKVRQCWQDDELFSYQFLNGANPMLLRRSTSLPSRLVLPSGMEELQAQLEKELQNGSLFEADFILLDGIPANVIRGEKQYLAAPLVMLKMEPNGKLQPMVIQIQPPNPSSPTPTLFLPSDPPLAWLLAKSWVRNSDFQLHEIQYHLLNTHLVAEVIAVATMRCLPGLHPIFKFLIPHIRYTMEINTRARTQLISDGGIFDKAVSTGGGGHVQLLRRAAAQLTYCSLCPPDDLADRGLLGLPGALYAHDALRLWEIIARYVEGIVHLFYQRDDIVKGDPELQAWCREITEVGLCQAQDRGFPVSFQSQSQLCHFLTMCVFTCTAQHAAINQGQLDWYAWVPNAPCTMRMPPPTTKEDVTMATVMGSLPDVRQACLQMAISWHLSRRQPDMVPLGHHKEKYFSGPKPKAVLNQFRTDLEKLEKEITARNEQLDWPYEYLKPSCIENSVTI
Chain of Human 5-lipoxygenase (5-LOX) (P09917 whole entry): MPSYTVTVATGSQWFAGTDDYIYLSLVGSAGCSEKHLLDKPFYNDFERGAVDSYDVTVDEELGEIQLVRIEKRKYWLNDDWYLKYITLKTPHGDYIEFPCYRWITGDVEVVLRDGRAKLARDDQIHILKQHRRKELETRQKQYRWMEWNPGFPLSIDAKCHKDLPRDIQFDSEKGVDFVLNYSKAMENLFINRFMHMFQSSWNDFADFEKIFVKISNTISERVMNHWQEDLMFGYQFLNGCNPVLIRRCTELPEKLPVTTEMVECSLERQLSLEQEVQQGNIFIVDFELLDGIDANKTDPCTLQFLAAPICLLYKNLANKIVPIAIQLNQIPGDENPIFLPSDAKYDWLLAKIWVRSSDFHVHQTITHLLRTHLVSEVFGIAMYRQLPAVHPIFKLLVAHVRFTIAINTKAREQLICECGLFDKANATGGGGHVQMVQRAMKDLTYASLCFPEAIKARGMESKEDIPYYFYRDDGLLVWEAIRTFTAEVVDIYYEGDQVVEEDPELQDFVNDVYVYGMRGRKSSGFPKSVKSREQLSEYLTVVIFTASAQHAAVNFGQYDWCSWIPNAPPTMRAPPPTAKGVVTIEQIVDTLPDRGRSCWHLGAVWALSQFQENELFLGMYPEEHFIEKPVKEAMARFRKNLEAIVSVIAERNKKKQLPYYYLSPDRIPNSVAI
Chain of human epithelial 15-lipoxygenase-2 (15-LOX-2) (O15296 whole entry): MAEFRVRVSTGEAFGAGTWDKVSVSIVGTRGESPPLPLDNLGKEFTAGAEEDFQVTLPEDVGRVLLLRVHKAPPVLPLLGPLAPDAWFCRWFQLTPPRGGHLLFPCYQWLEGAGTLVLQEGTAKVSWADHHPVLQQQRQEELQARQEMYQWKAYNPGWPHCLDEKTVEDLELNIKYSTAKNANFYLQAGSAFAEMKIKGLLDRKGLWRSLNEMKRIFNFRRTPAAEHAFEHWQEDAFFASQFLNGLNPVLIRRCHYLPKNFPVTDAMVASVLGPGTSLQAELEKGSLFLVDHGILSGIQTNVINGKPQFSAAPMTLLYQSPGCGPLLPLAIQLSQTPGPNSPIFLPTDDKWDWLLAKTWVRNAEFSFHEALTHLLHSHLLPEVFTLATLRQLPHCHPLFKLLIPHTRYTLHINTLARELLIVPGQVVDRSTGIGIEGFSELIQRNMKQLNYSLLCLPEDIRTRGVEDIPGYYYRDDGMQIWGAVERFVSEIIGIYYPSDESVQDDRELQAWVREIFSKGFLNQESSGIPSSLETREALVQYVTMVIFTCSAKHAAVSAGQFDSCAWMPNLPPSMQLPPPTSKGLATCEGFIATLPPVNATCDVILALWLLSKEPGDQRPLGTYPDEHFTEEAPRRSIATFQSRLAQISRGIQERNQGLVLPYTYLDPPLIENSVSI

With `CNc1oc(-c2cccc3ccccc23)nc1C#N` [Compound 1, 5-(Methylamino)-2-(naphthalen-1-yl)oxazole-4-carbonitrile] the “cellular protection in HT22 cells” value ([1]; 5 μM concentration) was “cellular protection”, the “protection against oxidative glutamate toxicity in HT22 cells” value [1] was “protective against oxidative glutamate toxicity; also recorded: dose-dependent protection” and the “Mouse Plasma Stability remaining at 2 hours” value (Mouse plasma stability) was 100%. For the same compound, the “Kinetic Solubility” value [2] was 1.2 µM, the “Permeability (PAMPA)” value (PAMPA permeability) was 723 10^−6 cm/s and the “hemorrhage in the ischemic hemisphere of warfarin-treated mice treated with tPA” value ([3]; 2 h ischemia, tPA 4 h after onset, 50 mg/kg i.p. concurrently with tPA) was “significantly reduced”. The “hemorrhage in the ischemic hemisphere of warfarin-treated mice” value ([3]; 3 h occlusion, 50 mg/kg i.p. 3 h after onset of ischemia) was “significantly reduced”, the Papp (Caco-2 permeability) was 1.5 ×10⁻⁶ cm/s and the IC50 [4] was > 100 µM. It also gave an AUC(0-inf) [5, 13] of 35.5 µM·h, a Tmax [5, 13] of 30 min and a half-life ([5]; male, CD1, mouse, brain, ip, 30 mg/kg, T1/2 (Brain), mouse, 30 mpk IP) of ~60 min. It also gave an AUC(0-inf) [5, 14] of 13 µM·h, a Cmax [5, 14] of 13.8 µM and a Tmax [5, 14] of 15 min. The half-life ([5]; male, CD1, mouse, plasma, ip, 30 mg/kg, T1/2 (Plasma), mouse, 30 mpk IP) was ~60 min, the “Cmax (Brain)” value ([5]; mouse, 30 mpk IP, brain) was 28.8 µM and the “infarct size, permanent focal ischemia” value [6] was “significantly reduced infarct size”. The “microsomal stability without NADPH” value [7] was “no degradation”, the “stability in aqueous solutions” value [8] was “stable” and the “infarct size, transient focal ischemia” value ([9]; 10 mg/kg) was “did not change the infarct”. For the same compound, the “infarct size, transient focal ischemia” value ([9]; 25 mg/kg) was “significantly protective” and the “infarct size, transient focal ischemia” value ([9]; 50 mg/kg) was “significantly protective”.
In the case of `CNc1oc(-c2ccc3ccccc3c2)nc1C#N` [Compound 2, 5-(Methylamino)-2-(naphthalen-2-yl)oxazole-4-carbonitrile], the IC50 [10] is reported as > 30 µM.
In the case of `CNc1oc(-c2cccc3cnccc23)nc1C#N` [Compound 3, 2-(Isoquinolin-5-yl)-5-(methylamino)oxazole-4-carbonitrile], the IC50 [10, 15] is reported as > 30 µM.
For `CNc1oc(-c2cccc3nccnc23)nc1C#N` [Compound 6, 5-(Methylamino)-2-(quinoxalin-5-yl)oxazole-4-carbonitrile], the IC50 [10, 15] was > 40 µM.
In the case of `CNc1oc(-c2cccc(Cl)c2Cl)nc1C#N` [Compound 7, 2-(2,3-Dichlorophenyl)-5-(methylamino)oxazole-4-carbonitrile], the “protection against glutamate-induced cell death in HT22 cells” value ([1]; concentration of 10 μM) is reported as “some protection” and the IC50 [11] is reported as > 100 µM.
With `CNc1oc(-c2ccc(Cl)c(Cl)c2)nc1C#N` [Compound 8, 2-(3,4-Dichlorophenyl)-5-(methylamino)oxazole-4-carbonitrile] the “protection against glutamate-induced cell death in HT22 cells” value ([1]; concentrations of 2 to 10) was “dose-dependent cell protective effect”.
With `CNc1oc(-c2ccc3c(c2)OCCO3)nc1C#N` [Compound 9, 2-(2,3-Dihydrobenzo[b][1,4]dioxin-6-yl)-5-(methylamino)oxazole-4-carbonitrile] the IC50 [10, 15] was > 40 µM.
In the case of `CNc1oc(-c2ccc(-c3ccccc3)cc2)nc1C#N` [Compound 11, 2-([1,1′-Biphenyl]-4-yl)-5-(methylamino)oxazole-4-carbonitrile], the “protection against oxidative glutamate toxicity in HT22 cells” value [1] is reported as “protected HT22 cells against oxidative stress” and the “12/15-LOX inhibition in words” value [10] is reported as “did not inhibit human 12/15-LOX”.
In the case of `CNc1oc(-c2ccc3cc[nH]c3c2)nc1C#N` [Compound 13, 2-(1H-indol-6-yl)-5-(methylamino)oxazole-4-carbonitrile], the IC50 [10] is reported as > 40 µM.
For `CC(C)Nc1oc(-c2cccc3ccccc23)nc1C#N` [Compound 26, 5-(Isopropylamino)-2-(naphthalen-1-yl)oxazole-4-carbonitrile], the “12/15-LOX inhibition in words” value [10] was “significantly reduced the potency”.
With `N#Cc1nc(-c2cccc3ccccc23)oc1NC1CNC1` [Compound 31, 5-(Azetidin-3-ylamino)-2-(naphthalen-1-yl)oxazole-4-carbonitrile] the “protection against oxidative glutamate toxicity in HT22 cells” value [1] was “protected HT22 cells against oxidative stress” and the “12/15-LOX inhibition in words” value [10] was “did not inhibit human 12/15-LOX”.
In the case of `CNc1sc(-c2cccc3ccccc23)nc1C#N` [Compound 32, 5-(methylamino)-2-(naphthalen-1-yl)thiazole-4-carbonitrile], the IC50 [12] is reported as > 100 µM and the IC50 [4] is reported as > 40 µM.
